Experimental data taken from patent publication US4492693A, “Benzothienylglycyl cephalosporin derivatives” (priority 1983, dated 1985).
In brackets after ≈: the same amount, converted by molar mass. Read-outs that look alike come from different tables or passages of the source.

How the values were obtained:
Type in all cases: cell-based
[1] = system: Staph. epi; test: Agar Dilution MIC (Table I); conditions: read-out: Agar Dilution MIC
[2] = system: Klebsiella; test: Agar Dilution MIC (Table I); conditions: for MIC: Klebsiella, read-out: Agar Dilution MIC
[3] = system: Bacteroides corrodens; test: Susceptibility of Anaerobic Bacteroides Isolates by the Agar-Dilution Method (Table III); conditions: Eikenella corrodens; strain 1874; readings 24 hrs. after incubation
From the text: (§1) A typical and preferred compound provided by this invention is 7-(3-benzothienyl)glycylamido-3-methyl-3-cephem-4-carboxylic acid, the compound illustrated in Example 9. The antibacterial activity of this compound has been determined in standard in vitro agar dilution assays against a variety of gram positive and gram negative microorganism. The following Tables present typical minimum inhibitory concentrations (MIC's) in μg/ml for several compounds of the invention when evaluated against the indicated microorganisms. MIC's for several known compounds are also presented for comparison.
(§2) Susceptibility of Anaerobic Bacteroides Isolates by the
(§3) Agar-Dilution Method MIC (μg/ml) readings 24 hrs. after incubation

[4] = system: Bacteroides fragilis; test: as above; conditions: 24 h
From the text: as §1, §2, §3

[5] = system: Bacteroides thetaiotaomicron; test: as above; conditions: 24 h
From the text: as §1, §2, §3

[6] = system: Strep. PN; test: Agar Dilution MIC (Table I); conditions: strain PARK
[7] = system: Staph. aureus; test: Agar Dilution MIC (Table I); conditions: Staphylococcus aureus
[8] = system: E. coli; test: Agar Dilution MIC (Table I); conditions: Escherichia coli
[9] = system: Strep. A; test: Agar Dilution MIC (Table I); conditions: strain C203; read-out: Agar Dilution MIC
[10] = system: Staph. epi; test: Expanded Spectrum MIC (Table II)
From the text: as §1
(§4) Expanded Spectrum MIC (μg/ml)

[11] = system: Staph. aureus; test: Expanded Spectrum MIC (Table II); conditions: Staphylococcus aureus
From the text: as §1, §4

[12] = system: H. influenzae; test: Expanded Spectrum MIC (Table II); conditions: Haemophilus influenzae
From the text: as §1, §4

[13] = system: H. influ.; test: Agar Dilution MIC (Table I); conditions: read-out: Agar Dilution MIC
[14] = system: Strep. D; test: Agar Dilution MIC (Table I); conditions: for MIC: read-out: Agar Dilution MIC
Method in brief: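 Compound is serially diluted into agar, the organism is applied, and the lowest concentration that inhibits growth is recorded as the MIC (μg/ml).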

[15] = strain 9, readings 24 hrs. after incubation
[16] = strain 103, readings 24 hrs. after incubation
[17] = strain 104, readings 24 hrs. after incubation
[18] = strain 106, readings 24 hrs. after incubation
[19] = strain 107, readings 24 hrs. after incubation
[20] = strain 108, readings 24 hrs. after incubation
[21] = strain 110, readings 24 hrs. after incubation
[22] = strain 111, readings 24 hrs. after incubation
[23] = strain 1877, readings 24 hrs. after incubation
[24] = strain 1438, readings 24 hrs. after incubation
[25] = strain 1900A, readings 24 hrs. after incubation
[26] = strain V41, read-out: Agar Dilution MIC
[27] = strain X1.1, read-out: Agar Dilution MIC
[28] = strain X400, read-out: Agar Dilution MIC

`CC1=C(C(=O)O)N2C(=O)C(NC(=O)[C@H](N)c3csc4ccc(F)cc34)C2SC1` (stereo partly drawn) [Ex. 18, D-7-(5-Fluoro-3-benzothienyl)glycylamido-3-methyl-3-cephem-4-carboxylic acid] showed an MIC ([1]; strain 222) of 4 µg/mL (≈ 9.49 µM), an MIC ([1]; strain EPI1) of 8 µg/mL (≈ 19 µM) and an MIC ([2]; strain KAE) of 128 µg/mL (≈ 304 µM). It also gave an MIC ([2]; strain X26) of 4 µg/mL (≈ 9.49 µM), an MIC ([2]; strain X68) of 128 µg/mL (≈ 304 µM) and an MIC [3] of 64 µg/mL (≈ 152 µM). The MIC [4, 15] was 8 µg/mL (≈ 19 µM), the MIC [4, 16] was 64 µg/mL (≈ 152 µM) and the MIC [4, 17] was 16 µg/mL (≈ 38 µM). For the same compound, the MIC [4, 18] was 16 µg/mL (≈ 38 µM), the MIC [4, 19] was 16 µg/mL (≈ 38 µM) and the MIC [4, 20] was 16 µg/mL (≈ 38 µM). For the same compound, the MIC [4, 21] was 16 µg/mL (≈ 38 µM), the MIC [4, 22] was 128 µg/mL (≈ 304 µM) and the MIC [4, 23] was 16 µg/mL (≈ 38 µM). For the same compound, the MIC [5, 24] was 16 µg/mL (≈ 38 µM), the MIC [5, 25] was 32 µg/mL (≈ 75.9 µM) and the MIC [6] was 1 µg/mL (≈ 2.37 µM). It also gave an MIC [7, 26] of 8 µg/mL (≈ 19 µM), an MIC [7, 27] of 1 µg/mL (≈ 2.37 µM) and an MIC [7, 28] of 64 µg/mL (≈ 152 µM). The MIC ([8]; strain EC14) was 64 µg/mL (≈ 152 µM), the MIC ([8]; strain N10) was 128 µg/mL (≈ 304 µM) and the MIC ([8]; strain TEM) was 64 µg/mL (≈ 152 µM). It also gave an MIC [9] of 0.25 µg/mL (≈ 0.593 µM), an MIC ([10]; strain 219) of 1 µg/mL (≈ 2.37 µM) and an MIC ([10]; strain 269) of 4 µg/mL (≈ 9.49 µM). For the same compound, the MIC ([10]; strain 270) was 4 µg/mL (≈ 9.49 µM), the MIC ([10]; strain 285) was 2 µg/mL (≈ 4.75 µM) and the MIC ([10]; strain 286) was 1 µg/mL (≈ 2.37 µM). The MIC ([10]; strain EPI1) was 8 µg/mL (≈ 19 µM), the MIC ([11]; strain S224) was 1 µg/mL (≈ 2.37 µM) and the MIC ([11]; strain S225) was 1 µg/mL (≈ 2.37 µM). The MIC ([11]; strain S226) was 2 µg/mL (≈ 4.75 µM), the MIC ([11]; strain S227) was 2 µg/mL (≈ 4.75 µM) and the MIC ([11]; strain S228) was 1 µg/mL (≈ 2.37 µM). The MIC ([11]; strain S229) was 2 µg/mL (≈ 4.75 µM), the MIC ([11]; strain S230) was 1 µg/mL (≈ 2.37 µM) and the MIC ([11]; strain S231) was 1 µg/mL (≈ 2.37 µM). It also gave an MIC ([11]; strain S234) of 2 µg/mL (≈ 4.75 µM), an MIC ([11]; strain S237) of 2 µg/mL (≈ 4.75 µM) and an MIC ([11]; strain S238) of 2 µg/mL (≈ 4.75 µM). It also gave an MIC ([11]; strain S239) of 2 µg/mL (≈ 4.75 µM), an MIC ([12]; strain 76) of 1 µg/mL (≈ 2.37 µM) and an MIC ([12]; strain 105) of 1 µg/mL (≈ 2.37 µM). It also gave an MIC ([12]; strain 158) of 1 µg/mL (≈ 2.37 µM), an MIC ([12]; strain 164) of 1 µg/mL (≈ 2.37 µM) and an MIC ([12]; strain 169) of 1 µg/mL (≈ 2.37 µM). The MIC ([12]; strain 171) was 1 µg/mL (≈ 2.37 µM), the MIC ([12]; strain 312) was 1 µg/mL (≈ 2.37 µM) and the MIC ([12]; strain 1683) was 0.25 µg/mL (≈ 0.593 µM). For the same compound, the MIC ([12]; strain 1930) was 1 µg/mL (≈ 2.37 µM), the MIC ([12]; strain 4842) was 1 µg/mL (≈ 2.37 µM) and the MIC ([12]; strain C.L.) was 2 µg/mL (≈ 4.75 µM). For the same compound, the MIC ([12]; strain HESS) was 2 µg/mL (≈ 4.75 µM), the MIC ([12]; strain M366) was 64 µg/mL (≈ 152 µM) and the MIC ([12]; strain M370) was 1 µg/mL (≈ 2.37 µM). For the same compound, the MIC ([12]; strain M371) was 1 µg/mL (≈ 2.37 µM), the MIC ([12]; strain R465) was 64 µg/mL (≈ 152 µM) and the MIC ([12]; strain STEL) was 64 µg/mL (≈ 152 µM). It also gave an MIC ([13]; strain 76) of 1 µg/mL (≈ 2.37 µM), an MIC ([13]; strain C.L.) of 4 µg/mL (≈ 9.49 µM) and an MIC ([14]; strain 2041) of 128 µg/mL (≈ 304 µM). It also gave an MIC ([14]; strain X66) of 128 µg/mL (≈ 304 µM).

`CC1=C(C(=O)O)N2C(=O)C(NC(=O)[C@H](N)c3csc4c(F)cccc34)C2SC1` (stereo partly drawn) [Ex. 20, D-7-(7-Fluoro-3-benzothienyl)glycylamido-3-methyl-3-cephem-4-carboxylic acid] showed an MIC ([1]; strain 222) of 2 µg/mL (≈ 4.75 µM), an MIC ([1]; strain EPI1) of 4 µg/mL (≈ 9.49 µM) and an MIC [2] of 128 µg/mL (≈ 304 µM). The MIC ([2]; strain X26) was 4 µg/mL (≈ 9.49 µM), the “Agar Dilution MIC” value ([2]; strain X68) was 128 µg/mL and the MIC [3] was 64 µg/mL (≈ 152 µM). It also gave an MIC [4, 15] of 16 µg/mL (≈ 38 µM), an MIC [4, 16] of 64 µg/mL (≈ 152 µM) and an MIC [4, 17] of 8 µg/mL (≈ 19 µM). It also gave an MIC [4, 18] of 16 µg/mL (≈ 38 µM), an MIC [4, 19] of 32 µg/mL (≈ 75.9 µM) and an MIC [4, 20] of 8 µg/mL (≈ 19 µM). For the same compound, the MIC [4, 21] was 32 µg/mL (≈ 75.9 µM), the MIC [4, 22] was 128 µg/mL (≈ 304 µM) and the MIC [4, 23] was 16 µg/mL (≈ 38 µM). The MIC [5, 24] was 16 µg/mL (≈ 38 µM), the MIC [5, 25] was 32 µg/mL (≈ 75.9 µM) and the MIC [6] was 0.5 µg/mL (≈ 1.19 µM). It also gave an MIC ([7]; read-out: Agar Dilution MIC, strain S13E) of 8 µg/mL (≈ 19 µM), an MIC [7, 26] of 16 µg/mL (≈ 38 µM) and an MIC [7, 27] of 0.5 µg/mL (≈ 1.19 µM). It also gave an MIC [7, 28] of 128 µg/mL (≈ 304 µM), an MIC ([8]; strain EC14) of 128 µg/mL (≈ 304 µM) and an MIC ([8]; strain N10) of 128 µg/mL (≈ 304 µM). The MIC ([8]; strain TEM) was 128 µg/mL (≈ 304 µM), the MIC [9] was 0.125 µg/mL (≈ 0.297 µM) and the MIC ([10]; strain 219) was 2 µg/mL (≈ 4.75 µM). For the same compound, the MIC ([10]; strain 269) was 4 µg/mL (≈ 9.49 µM), the MIC ([10]; strain 270) was 8 µg/mL (≈ 19 µM) and the MIC ([10]; strain 285) was 4 µg/mL (≈ 9.49 µM). It also gave an MIC ([10]; strain 286) of 1 µg/mL (≈ 2.37 µM), an MIC ([10]; strain EPI1) of 16 µg/mL (≈ 38 µM) and an MIC ([11]; strain S224) of 2 µg/mL (≈ 4.75 µM). It also gave an MIC ([11]; strain S225) of 2 µg/mL (≈ 4.75 µM), an MIC ([11]; strain S226) of 2 µg/mL (≈ 4.75 µM) and an MIC ([11]; strain S227) of 2 µg/mL (≈ 4.75 µM). For the same compound, the MIC ([11]; strain S228) was 2 µg/mL (≈ 4.75 µM), the MIC ([11]; strain S229) was 2 µg/mL (≈ 4.75 µM) and the MIC ([11]; strain S230) was 2 µg/mL (≈ 4.75 µM). For the same compound, the MIC ([11]; strain S231) was 1 µg/mL (≈ 2.37 µM), the MIC ([11]; strain S234) was 2 µg/mL (≈ 4.75 µM) and the MIC ([11]; strain S237) was 2 µg/mL (≈ 4.75 µM). The MIC ([11]; strain S238) was 4 µg/mL (≈ 9.49 µM), the MIC ([11]; strain S239) was 2 µg/mL (≈ 4.75 µM) and the MIC ([12]; strain 76) was 1 µg/mL (≈ 2.37 µM). The MIC ([12]; strain 105) was 2 µg/mL (≈ 4.75 µM), the MIC ([12]; strain 158) was 2 µg/mL (≈ 4.75 µM) and the MIC ([12]; strain 164) was 2 µg/mL (≈ 4.75 µM). The MIC ([12]; strain 169) was 4 µg/mL (≈ 9.49 µM), the MIC ([12]; strain 171) was 2 µg/mL (≈ 4.75 µM) and the MIC ([12]; strain 312) was 4 µg/mL (≈ 9.49 µM). The MIC ([12]; strain 1683) was 1 µg/mL (≈ 2.37 µM), the MIC ([12]; strain 1930) was 4 µg/mL (≈ 9.49 µM) and the MIC ([12]; strain 4842) was 2 µg/mL (≈ 4.75 µM). The MIC ([12]; strain C.L.) was 16 µg/mL (≈ 38 µM), the MIC ([12]; strain HESS) was 8 µg/mL (≈ 19 µM) and the MIC ([12]; strain M366) was 64 µg/mL (≈ 152 µM). For the same compound, the MIC ([12]; strain M370) was 2 µg/mL (≈ 4.75 µM), the MIC ([12]; strain M371) was 2 µg/mL (≈ 4.75 µM) and the MIC ([12]; strain R465) was 64 µg/mL (≈ 152 µM). For the same compound, the MIC ([12]; strain STEL) was 64 µg/mL (≈ 152 µM), the MIC ([13]; strain 76) was 0.5 µg/mL (≈ 1.19 µM) and the MIC ([13]; strain C.L.) was 4 µg/mL (≈ 9.49 µM). For the same compound, the MIC [14] was 128 µg/mL (≈ 304 µM) and the “Agar Dilution MIC” value ([14]; strain 2041) was 128 µg/mL.
